One data set deals with TNF-α. As to the kind of experiment: TNF-α production in LPS-stimulated human whole blood (ELISA). Format: cell-based. To be noted: LPS 4 hours, read-out: % TNF-α Inhibitory Activity in (hPBMC). The method, then: This assay determines the effect of the test compounds on the production of TNF-α in human whole blood. TNF-α assay is carried out as described by Armin Hatzelmann and Christian Schudt (J Pharm Exp Ther 297, 261, 2001). Compounds are tested for their ability to inhibit the activity of TNF-α in human whole blood. The test compounds are pre-incubated for 15 minutes at 37° C. and then stimulated with Lipopolysaccharide (Salmonella abortus equi, 1 µg/ml) for 4 hours at 37° C. in 5% CO2. The levels of TNF-α are estimated using Enzyme linked Immunosorbent assay performed in a 96 well format as per the procedure of the manufacturer (Cayman Chemical, Ann Arbor, USA).
On the technique in general: In an ELISA, binding on a coated surface is turned into a signal by an enzyme label.

A further data set concerns IL-6. As to the kind of experiment: IL-6 production in LPS-stimulated human whole blood (ELISA). The data set is classed as cell-based. As to conditions: LPS 4 hours, read-out: % IL-6 Inhibitory Activity (hPBMC). Here is the method: This assay determines the effect of test compounds on the production of IL-6 from human whole blood. Compounds are tested for their ability to downregulate the production of IL-6 in activated whole blood. The test compounds are pre-incubated for 15 minutes at 37° C. and then stimulated with Lipopolysaccharide (Salmonella abortus equi, 1 µg/ml) for 4 hours at 37° C. in 5% CO2. The levels of IL-6 are estimated using Enzyme linked Immunosorbent assay performed in a 96 well format as per the procedure of the manufacturer. (Cayman Chemical, Ann Arbor, USA).

For 26 compounds, melting point and inhibition results are on record in patent US20090170872A1, “Compounds and Their Pharmaceutical Use” (Orchid Research Laboratories Limited, priority 2005, published 2009).

Structures are written as SMILES.

As a reminder, the melting point is the temperature, or range, at which the solid turns liquid.

For `Cc1nccn1CC1CCc2c(c3ccccc3n2C)/C1=N/OC(=O)c1ccc(C(F)(F)F)cc1` (stereo not drawn) [Example 34], the melting point lay in the range of 200 to 203 °C.
In the case of `Cc1nccn1CC1CCc2c(c3ccccc3n2C)C1NO` (stereo not drawn) [Example 64, 4-(hydroxyamino)-9-methyl-3-[(2-methyl-1H-imidazol-1-yl)methyl]-2,3,4,9-tetrahydro-1H-carbazole], the melting point lay in the range of 140 to 144 °C.
Still for that read-out and setting: as for `Cc1nccn1CC1CCc2c(c3ccccc3n2C)/C1=N/O` (stereo not drawn) [Example 1, (4E)-9-methyl-3-[(2-methyl-1H-imidazol-1-yl)methyl]-1,2,3,9-tetrahydro-4H-carbazol-4-one oxime], the figure is 231 to 233 °C.
As for `Cc1nccn1CC1CCc2c(c3ccccc3n2C)/C1=N/OC(=O)c1ccc(Br)o1` (stereo not drawn) [Example 45, (4E)-9-methyl-3-[(2-methyl-1H-imidazol-1-yl)methyl]-1,2,3,9-tetrahydro-4H-carbazol-4-one O-5-bromo-2-furanoyloxime], in the data set on TNF-α, the inhibition at 1 µM came to 12.3% and the inhibition at 10 µM is 32.1%.
The compound `Cc1nccn1CC1CCc2c(c3ccccc3n2C)/C1=N/OC(=O)c1ccccc1` (stereo not drawn) [Example 30, (4E)-9-methyl-3-[(2-methyl-1H-imidazol-1-yl)methyl]-1,2,3,9-tetrahydro-4H-carbazol-4-one O-benzoyloxime] displayed a melting point of 179 to 185 °C.
As for `Cc1nccn1CC1CCc2c(c3ccccc3n2C)/C1=N/OC(=O)c1ccc(Cl)s1` (stereo not drawn) [Example 56, (4E)-9-methyl-3-[(2-methyl-1H-imidazol-1-yl)methyl]-1,2,3,9-tetrahydro-4H-carbazol-4-one O-5-chloro-2-thiophenoyloxime], the melting point was 140 to 144 °C. Besides, in the data set on TNF-α, the inhibition at 1 µM came out at 26.5% and the inhibition at 10 µM is 54.3%.
Turning to `CC(=O)O/N=C1/c2c(n(C)c3ccccc23)CCC1Cn1ccnc1C` (stereo not drawn) [Example 25, (4E)-9-methyl-3-[(2-methyl-1H-imidazol-1-yl)methyl]-1,2,3,9-tetrahydro-4H-carbazol-4-one O-acetyloxime], in the data set on IL-6, the inhibition at 1 µM came to 22.4% and the inhibition at 10 µM was determined as 12.5%.
Regarding `Cc1nccn1CC1CCc2c(c3ccccc3n2C)/C1=N/OC(=O)C(F)(F)F` (stereo not drawn) [Example 26, (4E)-9-methyl-3-[(2-methyl-1H-imidazol-1-yl)methyl]-1,2,3,9-tetrahydro-4H-carbazol-4-one O-trifluoroacetyloxime], the melting point lay within 148 to 150 °C. Moreover, in the data set on TNF-α, the inhibition at 1 µM is 20.8% and the inhibition at 10 µM was 2.67%.
The compound `Cc1nccn1CC1CCc2c(c3ccccc3n2C)/C1=N/OC(=O)c1ccccc1F` (stereo not drawn) [Example 33, (4E)-9-methyl-3-[(2-methyl-1H-imidazol-1-yl)methyl]-1,2,3,9-tetrahydro-4H-carbazol-4-one O-2-fluorobenzoyloxime] came in with a melting point of 172 to 175 °C.
Consider `Cc1nccn1CC1CCc2c(c3ccccc3n2C)/C1=N/OCc1ccccc1` (stereo not drawn) [Example 2, (4E)-9-methyl-3-[(2-methyl-1H-imidazol-1-yl)methyl]-1,2,3,9-tetrahydro-4H-carbazol-4-one O-benzyloxime], for which, in the data set with TNF-α, the inhibition at 1 µM turned out to be 6.87% and the inhibition at 10 µM was 54.3%. In the data set with IL-6, the inhibition at 1 µM amounted to 17.2% and the inhibition at 10 µM was 52.7%.
On to `COc1ccc(CO/N=C2/c3c(n(C)c4ccccc34)CCC2Cn2ccnc2C)cc1` (stereo not drawn) [Example 5, (4E)-9-methyl-3-[(2-methyl-1H-imidazol-1-yl)methyl]-1,2,3,9-tetrahydro-4H-carbazol-4-one O-(4-methoxybenzyl)oxime], for which, in the data set on TNF-α, the inhibition at 1 µM turned out to be 18.4% and the inhibition at 10 µM is 52.4%.
In the same order, the values of `Cc1nccn1CC1CCc2c(c3ccccc3n2C)/C1=N/OCc1cccnc1` (stereo not drawn) [Example 10, (4E)-9-methyl-3-[(2-methyl-1H-imidazol-1-yl)methyl]-1,2,3,9-tetrahydro-4H-carbazol-4-one O-(pyidin-3-ylmethyl)oxime] are 19.9% and 50.5%.
The compound `Cc1ccsc1C(=O)O/N=C1/c2c(n(C)c3ccccc23)CCC1Cn1ccnc1C` (stereo not drawn) [Example 49, (4E)-9-methyl-3-[(2-methyl-1H-imidazol-1-yl)methyl]-1,2,3,9-tetrahydro-4H-carbazol-4-one O-3-methyl-2-thiophenoyloxime] showed a melting point of 177 to 180 °C.
The same measure, in the same setting: with `Cc1nccn1CC1CCc2c(c3ccccc3n2C)/C1=N/OC(=O)c1ccsc1` (stereo not drawn) [Example 53] the figure was 171 to 175 °C.
For the compound `Cc1nccn1CC1CCc2c(c3ccccc3n2C)/C1=N/OCc1ccc([N+](=O)[O-])cc1` (stereo not drawn) [Example 15, (4E)-9-methyl-3-[(2-methyl-1H-imidazol-1-yl)methyl]-1,2,3,9-tetrahydro-4H-carbazol-4-one O-(4-nitrobenzyl)oxime], in the data set with TNF-α, the inhibition at 1 µM is 48.1% and the inhibition at 10 µM came out at 41.2%.
Taken in the same sequence, the figures for `Cc1nccn1CC1CCc2c(c3ccccc3n2C)/C1=N/Oc1ccc(C(F)(F)F)c(Cl)n1` (stereo not drawn) [Example 22, (4E)-9-methyl-3-[(2-methyl-1H-imidazol-1-yl)methyl]-1,2,3,9-tetrahydro-4H-carbazol-4-one O-(-chloro-5-trifluoromethyl-pyridin-2-yl)oxime] were 53.1% and 48%.
As for `Cc1nccn1CC1CCc2c(c3ccccc3n2C)/C1=N/OC(=O)c1ccc(Cl)cc1` (stereo not drawn) [Example 31, (4E)-9-methyl-3-[(2-methyl-1H-imidazol-1-yl)methyl]-1,2,3,9-tetrahydro-4H-carbazol-4-one O-4-chloro-benzoyloxime], the melting point lay within 206 to 212 °C. In the data set on TNF-α, the inhibition at 1 µM is 10.8% and the inhibition at 10 µM stood at 28.5%.
`Cc1ccoc1C(=O)O/N=C1/c2c(n(C)c3ccccc23)CCC1Cn1ccnc1C` (stereo not drawn) [Example 48, (4E)-9-methyl-3-[(2-methyl-1H-imidazol-1-yl)methyl]-1,2,3,9-tetrahydro-4H-carbazol-4-one O-3-methyl-2-furanoyloxime] gave a melting point of 165 to 170 °C. Moreover, in the data set with TNF-α, the inhibition at 1 µM amounted to 20.7% and the inhibition at 10 µM is 22.6%.
In the same order, the values of `Cc1ccc(C(=O)O/N=C2/c3c(n(C)c4ccccc34)CCC2Cn2ccnc2C)cc1` (stereo not drawn) [Example 36, (4E)-9-methyl-3-[(2-methyl-1H-imidazol-1-yl)methyl]-1,2,3,9-tetrahydro-4H-carbazol-4-one O-4-methylbenzoyloxime] are 207 to 212 °C, 8.81% and 18.8%.
Taken in the same sequence, the figures for `Cc1nccn1CC1CCc2c(c3ccccc3n2C)/C1=N/OC(=O)c1ccc([N+](=O)[O-])o1` (stereo not drawn) [Example 47, (4E)-9-methyl-3-[(2-methyl-1H-imidazol-1-yl)methyl]-1,2,3,9-tetrahydro-4H-carbazol-4-one O-5-nitro-2-furanoyloxime] were 186 to 190 °C, 18% and 26.5%.
Turning to `Cc1cc(C(=O)O/N=C2/c3c(n(C)c4ccccc34)CCC2Cn2ccnc2C)no1` (stereo not drawn) [Example 50, (4E)-9-methyl-3-[(2-methyl-1H-imidazol-1-yl)methyl]-1,2,3,9-tetrahydro-4H-carbazol-4-one O-5-methyl-3-isoxazoloyloxime], the melting point fell in the range of 154 to 157 °C.
Turning to `COc1ccc(C(=O)O/N=C2/c3c(n(C)c4ccccc34)CCC2Cn2ccnc2C)cc1` (stereo not drawn) [Example 35, (4E)-9-methyl-3-[(2-methyl-1H-imidazol-1-yl)methyl]-1,2,3,9-tetrahydro-4H-carbazol-4-one O-4-methoxybenzoyloxime], the melting point is 200 to 203 °C.
Regarding `Cc1nccn1CC1CCc2c(c3ccccc3n2C)/C1=N/OC(=O)c1ccnc(Cl)c1` (stereo not drawn) [Example 27, (4E)-9-methyl-3-[(2-methyl-1H-imidazol-1-yl)methyl]-1,2,3,9-tetrahydro-4H-carbazol-4-one O-2-chloropyridinoyloxime], the melting point was 172 to 174 °C. In addition, in the data set with TNF-α, the inhibition at 1 µM came out at 3.51% and the inhibition at 10 µM was found to be 9.77%.
For `Cc1nccn1CC1CCc2c(c3ccccc3n2C)/C1=N/OCc1ccncc1` (stereo not drawn) [Example 11, (4E)-9-methyl-3-[(2-methyl-1H-imidazol-1-yl)methyl]-1,2,3,9-tetrahydro-4H-carbazol-4-one O-(pyridin-4-ylmethyl)oxime], in the data set on TNF-α, the inhibition at 1 µM amounted to 11.7% and the inhibition at 10 µM is 47.5%.
For `Cc1nccn1CC1CCc2c(c3ccccc3n2C)/C1=N/OCC(F)(F)F` (stereo not drawn) [Example 4, (4E)-9-methyl-3-[(2-methyl-1H-imidazol-1-yl)methyl]-1,2,3,9-tetrahydro-4H-carbazol-4-one O-2,2,2-trifluoroethyloxime], in the data set with TNF-α, the inhibition at 1 µM was 19.8% and the inhibition at 10 µM stood at 26.1%.
With `Cc1nccn1CC1CCc2c(c3ccccc3n2C)/C1=N/OC(=O)c1ccoc1` (stereo not drawn) [Example 63, (4E)-9-methyl-3-[(2-methyl-1H-imidazol-1-yl)methyl]-1,2,3,9-tetrahydro-4H-carbazol-4-one [(furan-3-yl)carbonyl]oxime], the melting point lay within 158 to 164 °C.
